A short description of the data set: In vitro metabolism test of fluorescein-labeled peptides in liver extract solution (HPLC). The data set is classed as in vitro ADME. As to conditions: liver extract solution (supernatant of liver homogenate), mouse liver extract solution, 37° C., read-out: residual ratio of unchanged peptide in liver extract solution. The protocol:
To compare the degree of improved stability observed in [C]K004K, an experiment system that uses a fluorescent pigment as a tracer instead of an isotope labeling for in vitro evaluation using a mouse liver homogenate was produced.
Add two parts of Hanks' solution to one part of mouse liver, and homogenize ↓ Centrifuge and collect supernatant ↓ Add five parts of Hanks' solution (liver extract solution) ↓ Add 5 μL of peptide to 245 μL of liver extract solution ↓
↓ Take 50 μL of sample 0, 5, 30, 60, and 120 minutes after incubation ↓ Add 200 μL, of 70% ethanol (pre-cooled at −30° C.) and then vortex ↓ Add 500 μL of chloroform (pre-cooled at −30° C.) and then vigorously vortex ↓ Centrifuge and collect supernatant ↓ Add an equivalent amount of DMF and then vortex ↓ Centrifuge and collect supernatant ↓ HPLC analysis using Co-sense
[C](Flu)-C004C: A peptide cyclized by adding C to both ends of the 004 sequence and forming a disulfide bond between them was labeled with fluorescein at its N-terminus. [C](Flu)-K004C: A peptide cyclized by adding K to the N terminus and C to the C terminus of the 004 sequence and forming a peptide bond between the N- and C-termini was labeled with fluorescein at its N terminus. [C](Flu)-K004K: A peptide cyclized by adding K to both ends of the 004 sequence and forming a peptide bond between the N- and C-termini was labeled with fluorescein at its N terminus. […]

The results in this text go back to patent US20100111838A1, “BRAIN-LOCALIZING POLYPEPTIDES COMPRISING A MULTIVALENT BINDING MOIETY AND IMPROVED METABOLIC STABILITY” (Proteus Sciences Co., Ltd, priority 2007, published 2010).

The structures appear in SMILES notation. Where a SMILES comes first, the peptide text is derived from it. The star is where a group is joined. 5FAM = O=C1OC2(c3ccc(O)cc3Oc3cc(O)ccc32)c2ccc(C(=O)*)cc21

For the compound `CC(C)C[C@@H]1NC(=O)[C@H](Cc2c[nH]cn2)NC(=O)[C@H](CCCNC(=N)N)NC(=O)[C@H](C(C)C)NC(=O)[C@H](C(C)C)NC(=O)[C@H](CCCCNC(=O)c2ccc3c(c2)C(=O)OC32c3ccc(O)cc3Oc3cc(O)ccc32)NC(=O)[C@H](CS)NC(=O)[C@H](CCC(N)=O)NC(=O)[C@H](CCC(N)=O)NC1=O` [[C](Flu)-K004C, reference compound] (cyclo(K(5FAM)VVRHLQQC)), the remaining at 5 min (five minutes) is 40%.
For `CC(C)C[C@@H]1NC(=O)[C@H](Cc2c[nH]cn2)NC(=O)[C@H](CCCNC(=N)N)NC(=O)[C@H](C(C)C)NC(=O)[C@H](C(C)C)NC(=O)[C@H](CCCCNC(=O)c2ccc3c(c2)C(=O)OC32c3ccc(O)cc3Oc3cc(O)ccc32)NC(=O)[C@H](CCCCN)NC(=O)[C@H](CCC(N)=O)NC(=O)[C@H](CCC(N)=O)NC1=O` [[C](Flu)-K004K] (cyclo(K(5FAM)VVRHLQQK)), under “60-minute incubation”, the remaining at 1 h was approximately 50%.
